Measured values taken from patent EP3156398A1, “AGONISTS OF THE CHEMOKINE RECEPTOR CXCR3” (Friedrich-Alexander-Universität Erlangen-Nürnberg, priority 2015, dated 2017).
Entries after “also recorded” stand apart in the source; their conditions may differ.

Columns and labels:
Format in all cases: cell-based
FLAG-CXCR3 = target: T1, FLAG-CXCR3 (Homo sapiens, UniProt P49682); assay: ELISA based internalization assay; conditions: CXCL11 100 nM, modulators 10 µM, 1h at 37°C; Figure 4B
T1 construct: expressed in transfected cells; host or cells: HEK293T cells, transient
T1 sequence (P49682 1-368): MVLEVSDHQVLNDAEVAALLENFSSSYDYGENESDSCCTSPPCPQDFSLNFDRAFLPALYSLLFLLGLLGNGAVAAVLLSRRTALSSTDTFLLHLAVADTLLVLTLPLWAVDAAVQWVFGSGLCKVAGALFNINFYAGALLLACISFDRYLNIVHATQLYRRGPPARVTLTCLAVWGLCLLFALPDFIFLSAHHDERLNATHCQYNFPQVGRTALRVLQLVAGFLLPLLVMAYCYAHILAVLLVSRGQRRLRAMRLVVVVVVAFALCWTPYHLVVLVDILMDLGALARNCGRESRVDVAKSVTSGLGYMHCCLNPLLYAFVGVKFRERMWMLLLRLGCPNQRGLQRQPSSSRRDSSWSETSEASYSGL
Method: Enzyme-linked immunosorbent assay based internalization assay. The day after transfection with FLAG-CXCR3, cells were trypsinized, resuspended into fresh culture medium and plated in poly(D-lysine)-coated 48-well assay plates. 48h after transfection the medium was replaced by fresh DMEM w/o serum containing one concentration of the endogenous ligand CXCL11 (100 nM) or the positive allosteric modulators (10 µM) and incubated for 1h at 37°C. The cells were fixed with 4% formaldehyde solution and stained with monoclonal Anti-Flag antibody (Sigma-Aldrich Life Science, St. Louis, MO) and subsequently with Anti-Mouse IgG-Peroxidase Antibody produced in rabbit. […] The reaction was stopped with 1M H2SO4 and the resulting color was detected at 492 nm using a microplate reader Clariostar (BMG labtech, Ortenberg, Germany).
(§1) The effect of FAUC1036 on receptor internalization was investigated by scanning laser confocal microscopy and ELISA-based assay. […] The quantification of receptor internalization upon the treatment with the endogenous agonists and with either β-arrestin 2 biased FAUC1036 or G-protein biased FAUC1104 was performed with ELISA based assay. The HEK293T cells transiently expressing FLAG-CXCR3 were stimulated with compounds and chemokines for one hour, washed, fixed and the amount of FLAG-CXCR3 present on the surface was detected by anti-FLAG antibody.

CXCR3-eGFP = target: T2, CXCR3-eGFP (Homo sapiens, UniProt P49682); assay: Receptor internalization imaging (confocal laser scanning microscopy); conditions: CXCL11 10 nM; FAUC1036 10 µM and 1 µM; one hour; Figure 4A
T2 construct: expressed in transfected cells; host or cells: HEK293T cells, transient
T2 sequence (P49682 1-368): T1 sequence (P49682 1-368)
Method: Receptor internalization imaging: The day before transfection HEK293T cells were seeded in 6-well plates at a density of 200,000 cells/well. Transient transfection of the C-terminally eGFP-tagged CXCR3 cDNA was performed using TransIT293(MIRUS). Cells were transferred to Poly-L-Lysine coated glass coverslips 24 h after transfection. 2 d after transfection, cells were washed with phosphate buffered saline (PBS) and treated with the endogenous chemokine CXCL11 or compound FAUC1036 at 37°C in 5% CO2 for 60min. Cells were fixed with 4% paraformaldehyde (RotiHistofix, Carl Roth) for 10min. […]
as §1

CXCR3-PK2 = target: T3, CXCR3-PK2 (Homo sapiens, UniProt P49682); assay: β-arrestin 2 recruitment assay (PathHunter, DiscoveRx), CXCR3-PK2 construct; conditions: CXCR3-PK2; for CXCR3-PK2 pEC50 ± SEM: HEK293-T cells, PathHunter
T3 construct: expressed in transfected cells
T3 sequence (P49682 1-368): T1 sequence (P49682 1-368)
In short: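 HEK293 cells stably expressing the β-gal enzyme acceptor were transiently transfected with ProLink-tagged CXCR3 and cultured overnight at 37 °C. Compounds or CXCL11, in PBS pH 7.4 with 0.20% BSA, were added for 4 h, followed by detection mix for 60 min at room temperature. Recruitment was read as chemiluminescence from enzyme fragment complementation.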

CXCR3-PK1 = target: T4, CXCR3-PK1 (Homo sapiens, UniProt P49682); assay: β-arrestin 2 recruitment assay (PathHunter, DiscoveRx), CXCR3-PK1 construct; conditions: for CXCR3-PK1 pEC50 ± SEM: HEK293-T cells, PathHunter, two to three experiments in triplicate
T4 construct: expressed in transfected cells; host or cells: HEK293 cells stably expressing beta-gal enzyme acceptor (PathHunter, DiscoveRx), transiently transfected
T4 sequence (P49682 1-368): T1 sequence (P49682 1-368)
In short: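 HEK293 cells stably expressing β-gal enzyme acceptor, transiently transfected with PK1-tagged wild-type CXCR3, seeded overnight at 37°C. Test compounds or CXCL11 at various concentrations in PBS pH 7.4 with 0.20% BSA, 4 h; detection mix 60 min at room temperature. β-gal fragment complementation read by chemiluminescence.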

| Compound | receptor internalization (ELISA quantification) (FLAG-CXCR3) | CXCR3 internalization (confocal microscopy) (CXCR3-eGFP) | CXCR3-PK2 efficacy (%) (CXCR3-PK2; % of CXCL11 mediated effect, listed as 11/FAUC103 6) | Emax (CXCR3-PK2; % of CXCL11 mediated effect, read-out: CXCR3-PK2 efficacy (%) (converted)) | CXCR3-PK2 pEC50 ± SEM (CXCR3-PK2; listed as 11/FAUC103 6) | CXCR3-PK2 pEC50 ± SEM (CXCR3-PK2; listed as FAUC1036) | β-arrestin 2 recruitment, intrinsic agonism (result in words) (CXCR3-PK1) | CXCR3-PK1 efficacy (%) (CXCR3-PK1; % of CXCL11 mediated effect, CXCR3-PK1, listed as 11/FAUC103 6) | Emax (CXCR3-PK1; % of CXCL11 mediated effect, CXCR3-PK1, read-out: CXCR3-PK1 efficacy (%) (converted)) | CXCR3-PK1 pEC50 ± SEM (CXCR3-PK1; CXCR3-PK1, listed as 11/FAUC103 6) | CXCR3-PK1 pEC50 ± SEM (CXCR3-PK1; CXCR3-PK1, listed as FAUC1036) | CXCR3-PK1 pEC50 ± SEM (CXCR3-PK1; CXCR3-PK1) |
| --- | --- | --- | --- | --- | --- | --- | --- | --- | --- | --- | --- | --- |
| CC(C)(C)OC(=O)N[C@@H](CCCCNC(=O)[C@@H]1Cc2ccccc2CN1C(=O)CCC(=O)c1ccccc1)C(=O)NCC(c1ccccc1)c1ccccc1 [Compound 11, Tert-butyl ((S)-1-((2,2-diphenylethyl)amino)-1-oxo-6-((S)-2-(4-oxo-4-phenylbutanoyl)-1,2,3,4-tertahydroisoquinoline-3-carboxamido)hexan-2-yl)carbamate] | induced receptor internalization | induced the CXCR3 internalization; also recorded: led to the internalization of a significant portion of the receptors | 66±8 | 66 | 6.58±0.30 | 6.64 ± 0.30 | activates the β2-arrestin recruitment | 30±5 | 30 | 6.64±0.38 | 6.64 ± 0.38 |  |
| COc1ccc(C(=O)CCC(=O)N2Cc3ccccc3C[C@H]2C(=O)NCCCC[C@H](NC(=O)OC(C)(C)C)C(=O)NCC(c2ccccc2)c2ccccc2)cc1 [Compound 14, Tert-butyl ((S)-1-((2,2-diphenylethyl)amino)-6-((S)-2-(4-(4-methoxyphenyl)-4-oxobutanoyl)-1,2,3,4-tetrahydroisoquinoline-3-carboxamido)-1-oxohexan-2-yl)carbomate] | does not induce receptor internalization |  |  |  |  |  | complete loss of intrinsic agonistic properties |  |  |  |  | No effect |
